{"source": "paper PMC3500524", "about": "(Cancer cell, 2012)", "key": {"6PGD [1]": {"biological_target": "T1, 6PGD (Homo sapiens, UniProt P52209)", "T1 sequence (P52209 1-483)": "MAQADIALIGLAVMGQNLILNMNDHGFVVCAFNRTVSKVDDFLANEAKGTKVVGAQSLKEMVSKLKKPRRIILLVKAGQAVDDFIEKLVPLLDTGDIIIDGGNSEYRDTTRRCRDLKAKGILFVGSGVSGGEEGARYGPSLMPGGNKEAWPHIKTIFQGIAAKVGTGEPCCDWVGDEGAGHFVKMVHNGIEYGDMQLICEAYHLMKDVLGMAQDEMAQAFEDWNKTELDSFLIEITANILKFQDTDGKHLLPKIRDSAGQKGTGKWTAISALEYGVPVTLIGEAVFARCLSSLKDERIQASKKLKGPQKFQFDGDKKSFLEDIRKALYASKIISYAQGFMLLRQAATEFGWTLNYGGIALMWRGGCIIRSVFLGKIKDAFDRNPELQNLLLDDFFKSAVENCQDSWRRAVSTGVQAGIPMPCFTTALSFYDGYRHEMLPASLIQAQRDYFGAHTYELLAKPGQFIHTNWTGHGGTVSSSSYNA", "test": "in vitro 6PGD enzyme activity assay", "format": "biochemical", "conditions": "H1299 cell lysates or r6PGD"}, "PHGDH": {"biological_target": "T2, PHGDH (Homo sapiens, UniProt O43175)", "T2 sequence (O43175 1-533)": "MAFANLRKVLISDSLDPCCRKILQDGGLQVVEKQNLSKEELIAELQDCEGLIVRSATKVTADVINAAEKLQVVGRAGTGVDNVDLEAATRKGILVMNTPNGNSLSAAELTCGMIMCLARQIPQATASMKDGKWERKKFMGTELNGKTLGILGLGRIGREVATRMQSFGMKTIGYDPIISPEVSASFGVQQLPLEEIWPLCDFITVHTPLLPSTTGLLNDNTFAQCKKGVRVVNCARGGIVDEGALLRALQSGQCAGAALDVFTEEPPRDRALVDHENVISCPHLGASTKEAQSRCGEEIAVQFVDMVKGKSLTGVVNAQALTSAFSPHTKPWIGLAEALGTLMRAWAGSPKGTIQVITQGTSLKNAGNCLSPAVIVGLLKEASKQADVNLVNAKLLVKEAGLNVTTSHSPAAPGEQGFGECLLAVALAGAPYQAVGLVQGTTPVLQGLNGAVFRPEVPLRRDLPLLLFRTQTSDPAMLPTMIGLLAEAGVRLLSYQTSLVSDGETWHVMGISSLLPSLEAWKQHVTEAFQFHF", "test": "PHGDH enzyme activity assay", "format": "biochemical"}, "6PGD [2]": {"biological_target": "T1, 6PGD", "test": "thermal melt shift assay of 6PGD with ligand", "format": "binding", "conditions": "read-out: Kd for protein (6PGD)-ligand interaction"}, "G6PD": {"biological_target": "G6PD (Homo sapiens, UniProt P11413)", "sequence (P11413 whole entry)": "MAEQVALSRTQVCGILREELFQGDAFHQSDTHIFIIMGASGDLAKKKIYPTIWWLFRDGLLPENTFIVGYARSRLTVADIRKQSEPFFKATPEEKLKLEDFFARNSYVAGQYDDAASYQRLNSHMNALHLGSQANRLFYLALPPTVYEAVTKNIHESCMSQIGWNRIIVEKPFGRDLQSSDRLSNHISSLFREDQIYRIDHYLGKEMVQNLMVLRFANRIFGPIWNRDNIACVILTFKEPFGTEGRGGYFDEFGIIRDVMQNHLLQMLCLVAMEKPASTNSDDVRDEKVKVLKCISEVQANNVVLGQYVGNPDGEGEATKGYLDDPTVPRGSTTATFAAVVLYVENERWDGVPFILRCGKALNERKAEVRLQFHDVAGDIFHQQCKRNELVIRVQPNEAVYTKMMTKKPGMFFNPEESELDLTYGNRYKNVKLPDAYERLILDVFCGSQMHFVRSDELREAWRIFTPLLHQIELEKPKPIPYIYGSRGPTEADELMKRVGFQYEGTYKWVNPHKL", "test": "in vitro G6PD enzyme activity assay", "format": "biochemical", "conditions": "increasing concentrations; H1299 cell lysates or rG6PD"}, "6PGD [3]": {"biological_target": "T1, 6PGD", "test": "6PGD enzyme kinetics"}, "PGAM1": {"biological_target": "PGAM1 (Homo sapiens, UniProt P18669)", "sequence (P18669 whole entry)": "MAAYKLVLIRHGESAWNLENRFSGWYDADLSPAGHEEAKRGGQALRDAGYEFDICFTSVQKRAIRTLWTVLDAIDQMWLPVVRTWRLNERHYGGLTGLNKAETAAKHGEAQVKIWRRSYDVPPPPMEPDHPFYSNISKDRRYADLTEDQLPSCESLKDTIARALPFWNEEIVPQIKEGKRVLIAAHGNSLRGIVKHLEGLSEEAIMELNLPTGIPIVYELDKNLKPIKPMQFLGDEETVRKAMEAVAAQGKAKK", "conditions": "intact cells, ref Evans et al., 2007, 2005; cited from earlier work"}, "cancer cells": {"tested_on": "cancer cells", "conditions": "ref Engel et al., 2004; Evans et al., 2005; cited from earlier work"}, "H1299 cells [4]": {"tested_on": "H1299 cells", "test": "metabolism of H1299 cells under inhibitor treatment", "format": "cell-based, human"}, "H1299 cells [5]": {"tested_on": "H1299 cells", "test": "cell proliferation of H1299 cells", "format": "cell-based, human"}, "[6]": {"tested_on": "diverse human cancer and leukemia cells", "test": "cell proliferation / viability by trypan blue exclusion", "format": "cell-based"}, "[7]": {"tested_on": "human dermal fibroblasts (HDF), human foreskin fibroblasts (HFF), HaCaT keratinocyte cells, melanocyte PIG1 cells", "test": "cell proliferation / viability of normal proliferating human cells", "format": "cell-based"}, "nude mice": {"tested_on": "nude mice", "test": "toxicity studies in nude mice", "format": "in vivo"}, "H1299 xenograft": {"tested_on": "H1299 xenograft", "test": "H1299 xenograft in nude mice", "format": "in vivo, mouse"}, "[8]": {"tested_on": "primary leukemia cells from human patients", "test": "treatment of primary leukemia cells from human patients", "format": "cell-based"}, "[9]": {"biological_target": "purified human PGAM1 proteins (Homo sapiens, UniProt P18669)", "sequence (P18669 whole entry)": "as above", "test": "PGAM1 enzyme assay", "format": "biochemical", "conditions": "comparison among alizarin and derivatives"}, "[10]": {"tested_on": "human leukemia KG1a cells", "test": "proliferation of KG1a cells", "format": "cell-based", "conditions": "dose-dependent"}, "[11]": {"conditions": "primary leukemia cells, representative AML patient"}, "[12]": {"conditions": "samples from 7 (1 CML and 6 AML) out of 8 leukemia patients"}}, "data": [{"smiles": "O=C(O)[C@@H](CO)OP(=O)(O)O", "note": "[2-PG, 2-phosphoglycerate]", "values": [{"measurement": "6PGD enzyme activity", "setting": "6PGD [1]; 2-PG", "result": "did not affect 6PGD enzyme activity"}, {"measurement": "PHGDH activity", "setting": "PHGDH; 2-PG ~15μM", "result": "did not significantly affect PHGDH activity"}, {"measurement": "PHGDH enzyme activity", "setting": "PHGDH; 2-PG ~45μM or ~60μM, H1299 PGAM1 knockdown cell lysates", "result": "higher PHGDH enzyme activity"}, {"measurement": "enzyme activity of recombinant PHGDH (rPHGDH)", "setting": "PHGDH; increasing concentrations of 2-PG", "result": "increased enzyme activity of recombinant PHGDH"}]}, {"smiles": "O=C(O)[C@H](O)COP(=O)(O)O", "note": "[3-PG, 3-phosphoglycerate]", "values": [{"measurement": "Kd", "setting": "6PGD [2]", "result": "460 ± 40", "unit": "µM"}, {"measurement": "6PGD enzyme activity", "setting": "6PGD [1]; 3-PG ~60μM", "result": "do not significantly affect 6PGD enzyme activity"}, {"measurement": "6PGD enzyme activity", "setting": "6PGD [1]; 3-PG ~250μM", "result": "decreased enzyme activity of 6PGD"}, {"measurement": "G6PD activity", "setting": "G6PD", "result": "did not significantly affect G6PD activity"}, {"measurement": "mode of 6PGD inhibition", "setting": "6PGD [3]; Lineweaver-Burk plot, 3-PG ~250μM, 6-PG ~35μM", "result": "competitive inhibitor of 6PGD"}, {"measurement": "Ki", "setting": "6PGD [3]; read-out: inhibition constant (Ki) of 6PGD, Dixon plot", "result": "489 ± 13", "unit": "µM"}]}, {"smiles": "C#CCCCC(=O)OC(C)(C)C1CCC2(CO2)C(OC(=O)NC(Cc2c[nH]c3ccccc23)C(=O)OCc2ccccc2)C1", "note": "(stereo not shown) [MJE3]", "values": [{"measurement": "PGAM1 activity", "setting": "PGAM1", "result": "specifically inhibits PGAM1 activity exclusively in intact cells"}, {"measurement": "cancer cell proliferation", "setting": "cancer cells", "result": "attenuates cancer cell proliferation"}]}, {"smiles": "O=C1c2ccccc2C(=O)c2c1cc(S(=O)(=O)Nc1ccc(C(F)(F)F)cc1)c(O)c2O", "note": "[PGMI-004A]", "values": [{"measurement": "2-PG levels", "setting": "H1299 cells [4]", "result": "decreased 2-PG"}, {"measurement": "3-PG levels", "setting": "H1299 cells [4]", "result": "increased 3-PG levels"}, {"measurement": "biosynthesis of RNA", "setting": "H1299 cells [4]", "result": "reduced biosynthesis"}, {"measurement": "biosynthesis of lipids", "setting": "H1299 cells [4]", "result": "reduced biosynthesis of lipids"}, {"measurement": "intracellular ATP levels", "setting": "H1299 cells [4]", "result": "no significant effect on intracellular ATP levels"}, {"measurement": "lactate production", "setting": "H1299 cells [4]", "result": "significantly reduced lactate production"}, {"measurement": "oxidative PPP flux", "setting": "H1299 cells [4]", "result": "decreased oxidative PPP flux"}, {"measurement": "cell proliferation", "setting": "H1299 cells [5]", "result": "reduced"}, {"measurement": "cell proliferation", "setting": "[6]", "result": "decreased cell proliferation"}, {"measurement": "non-specific toxicity (cell proliferation) in normal cells", "setting": "[7]", "result": "minimal non-specific toxicity"}, {"measurement": "histopathological analyses vs vehicle-treated group", "setting": "nude mice", "result": "no notable differences"}, {"measurement": "tolerability of chronic injection", "setting": "nude mice; 100mg/kg/day intraperitoneally, 4 weeks", "result": "well-tolerated dose"}, {"measurement": "body weight, complete blood counts (CBC), hematopoietic properties", "setting": "nude mice; 100mg/kg/day, 7 days", "result": "did not result in significant alteration"}, {"measurement": "PGAM1 enzyme activity in resected tumors", "setting": "H1299 xenograft; 100mg/kg/day", "result": "effectively inhibits PGAM1 enzyme activity in tumors"}, {"measurement": "tumor growth and tumor size", "setting": "H1299 xenograft; 100mg/kg/day i.p., 21 days, vs vehicle", "result": "significantly decreased tumor growth and tumor size"}, {"measurement": "2-PG levels", "setting": "[8]; [11]", "result": "decreased 2-PG levels"}, {"measurement": "3-PG levels", "setting": "[8]; [11]", "result": "increased 3-PG"}, {"measurement": "PGAM1 activity", "setting": "[8]; [12]", "result": "reduced PGAM1 activity"}, {"measurement": "cell viability", "setting": "[8]; [12]", "result": "decreased cell viability"}, {"measurement": "lactate production", "setting": "[8]; [12]", "result": "reduced"}]}, {"smiles": "O=C1c2ccccc2C(=O)c2c1cc(S(=O)(=O)O)c(O)c2O", "note": "[alizarin Red S]", "values": [{"measurement": "relative potency as PGAM1 inhibitor in vitro", "setting": "[9]", "result": "more potent PGAM1 inhibitor"}]}, {"smiles": "O=C1c2ccccc2C(=O)c2c1ccc(O)c2O", "note": "[alizarin, 1,2-dihydroxyanthraquinone]", "values": [{"measurement": "cell proliferation", "setting": "[10]", "result": "decreased proliferation"}]}]}
